Measured values: PMC3226453, “Targeting the Wolbachia Cell Division Protein FtsZ as a New Approach for Antifilarial Therapy” (PLoS Neglected Tropical Diseases, 2011)

Assays:
Ec-FtsZ [1] = biological target: T1, Ec-FtsZ (Escherichia coli, UniProt P0A9A6); assay: enzyme-coupled GTPase assay, dose response; type: biochemical
T1 construct: N-terminal His tag, from strain MG1655
T1 sequence (P0A9A6 1-383): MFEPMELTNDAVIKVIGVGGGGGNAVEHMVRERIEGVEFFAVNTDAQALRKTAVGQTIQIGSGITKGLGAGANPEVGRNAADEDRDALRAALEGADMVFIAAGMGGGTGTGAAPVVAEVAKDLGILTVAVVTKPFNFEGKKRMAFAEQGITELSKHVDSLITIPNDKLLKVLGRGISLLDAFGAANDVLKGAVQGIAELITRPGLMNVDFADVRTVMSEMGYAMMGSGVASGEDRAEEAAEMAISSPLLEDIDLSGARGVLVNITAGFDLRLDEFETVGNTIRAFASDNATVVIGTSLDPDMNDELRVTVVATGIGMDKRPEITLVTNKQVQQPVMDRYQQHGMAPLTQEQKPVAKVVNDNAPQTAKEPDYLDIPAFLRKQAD

Ec-FtsZ [2] = biological target: T1, Ec-FtsZ; assay: enzyme-coupled GTPase assay, specific activity; type: biochemical
Ec-FtsZ [3] = biological target: T1, Ec-FtsZ; assay: enzyme-coupled (PK/LDH, NADH) GTPase assay; type: biochemical
(UniProt Q5GS34) = biological target: T2, (UniProt Q5GS34); assay: enzyme-coupled (PK/LDH, NADH) GTPase assay; type: biochemical, Wolbachia endosymbiont of Brugia malayi
T2 construct: gene ftsZ; full-length, N-terminal His6 tag
T2 sequence (Q5GS34 1-396 limits assumed): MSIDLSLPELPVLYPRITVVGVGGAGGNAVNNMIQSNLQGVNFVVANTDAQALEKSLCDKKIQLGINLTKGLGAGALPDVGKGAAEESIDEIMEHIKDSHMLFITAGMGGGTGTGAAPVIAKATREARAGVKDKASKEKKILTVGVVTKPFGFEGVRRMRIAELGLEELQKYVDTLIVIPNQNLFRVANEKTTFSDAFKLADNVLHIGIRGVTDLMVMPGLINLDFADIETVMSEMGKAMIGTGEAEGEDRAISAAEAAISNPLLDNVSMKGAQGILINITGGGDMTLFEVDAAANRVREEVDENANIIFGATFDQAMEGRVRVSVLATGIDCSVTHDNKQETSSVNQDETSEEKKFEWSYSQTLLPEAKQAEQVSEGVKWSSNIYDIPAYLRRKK

## COc1ccc(-c2ccc(C(C(=O)NC3CCCCC3)N(Cc3ccccn3)C(=O)c3ccccc3)cc2)cc1 (centres unmarked) [AV-C6]
Ec-FtsZ [1]
  enzyme-coupled GTPase assay, dose response: both compounds inhibited Ec-FtsZ activity although each was slightly less potent

## Nc1nc2c(ncn2[C@@H]2O[C@H](COP(=O)(O)OP(=O)(O)OP(=O)(O)O)[C@@H](O)[C@H]2O)c(=O)[nH]1 [GTP]
Ec-FtsZ [2]
  enzyme-coupled GTPase assay, specific activity: 0.22 ± 0.015 µmol/min/mg

## CCCCNC(=O)C(c1ccc2cc(O)ccc2c1)N(Cc1ccc(Cl)cc1)C(=O)CCC (centres unmarked) [N938]
Ec-FtsZ [1]
  enzyme-coupled GTPase assay, dose response: both compounds inhibited Ec-FtsZ activity although each was slightly less potent

## COc1ccc2cc3[n+](cc2c1OC)CCc1cc2c(cc1-3)OCO2 [berberine]
Ec-FtsZ [3]
  IC50: 240 µM
(UniProt Q5GS34)
  IC50: 320 µM
